# Source: ChEMBL document CHEMBL1201861, “Genomics of Drug Sensitity in Cancer screening data, Wellcome Trust Sanger Institute”
# pIC50: −log10 of the molar value.
# Tests used:
# Test in all cases: cells
# COR-L105 = assay type: functional, cell-based, Homo sapiens; settings: Homo sapiens, COR-L105;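 also: cell growth inhibition determined with a viability assay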
# Description: SANGER: Inhibition of human COR-L105 cell growth in a cell viability assay.
# CP50-MEL-B = assay type: functional, cell-based, Homo sapiens; settings: Homo sapiens, CP50-MEL-B;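 also: growth inhibition of the human cell line, measured with a cell viability read-out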
# Description: SANGER: Inhibition of human CP50-MEL-B cell growth in a cell viability assay.
# D-392MG = assay type: functional, cell-based, Homo sapiens; settings: Homo sapiens, D-392MG
# EKVX = assay type: functional, cell-based, Homo sapiens; settings: Homo sapiens, EKVX;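 also: growth inhibition of human EKVX cells, read out with a cell viability assay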
# Description: SANGER: Inhibition of human EKVX cell growth in a cell viability assay.
# ES7 = assay type: functional, cell-based, Homo sapiens; settings: Homo sapiens, ES7;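 also: growth inhibition of cultured human ES7 cells, read out as cell viability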
# Description: SANGER: Inhibition of human ES7 cell growth in a cell viability assay.
# ESS-1 = assay type: functional, cell-based, Homo sapiens; settings: Homo sapiens, ESS-1;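 also: growth inhibition of human ESS-1 cells, read out by a cell viability assay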
# Description: SANGER: Inhibition of human ESS-1 cell growth in a cell viability assay.
# GCIY = assay type: functional, cell-based, Homo sapiens; settings: Homo sapiens, GCIY;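 also: growth inhibition of the human GCIY cell line, read out by a cell viability assay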
# Description: SANGER: Inhibition of human GCIY cell growth in a cell viability assay.
# GP5d = assay type: functional, cell-based, Homo sapiens; settings: Homo sapiens, GP5d;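 also: growth inhibition of human GP5d cells, read out with a cell viability assay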
# Description: SANGER: Inhibition of human GP5d cell growth in a cell viability assay.
# HCC1569 = assay type: functional, cell-based, Homo sapiens; settings: Homo sapiens, HCC1569;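 also: growth inhibition of human HCC1569 cells, read out with a cell viability assay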
# Description: SANGER: Inhibition of human HCC1569 cell growth in a cell viability assay.
# HH = assay type: functional, cell-based; settings: Homo sapiens
# Description: SANGER: Inhibition of human HH cell growth in a cell viability assay.
# IST-MES1 = assay type: functional, cell-based, Homo sapiens; settings: Homo sapiens, IST-MES1;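 also: growth inhibition of IST-MES1 cells, measured with a cell viability assay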
# Description: SANGER: Inhibition of human IST-MES1 cell growth in a cell viability assay.
# KG-1 = assay type: functional, cell-based; settings: Homo sapiens;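 also: growth inhibition of KG-1 cells, read out by a cell viability assay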
# Description: SANGER: Inhibition of human KG-1 cell growth in a cell viability assay.
# KLE = assay type: functional, cell-based, Homo sapiens; settings: Homo sapiens, KLE;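 also: growth inhibition of human KLE cells, read out with a cell viability assay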
# Description: SANGER: Inhibition of human KLE cell growth in a cell viability assay.
# KYSE-270 = assay type: functional, cell-based, Homo sapiens; settings: Homo sapiens, KYSE-270;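 also: cell growth inhibition measured with a viability assay in the human KYSE-270 line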
# Description: SANGER: Inhibition of human KYSE-270 cell growth in a cell viability assay.
# LAN-6 = assay type: functional, cell-based, Homo sapiens; settings: Homo sapiens, LAN-6;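 also: growth inhibition of LAN-6 cells, determined with a cell viability assay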
# Description: SANGER: Inhibition of human LAN-6 cell growth in a cell viability assay.
# LB1047-RCC = assay type: functional, cell-based, Homo sapiens; settings: Homo sapiens, LB1047-RCC;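 also: inhibition of cell growth, determined with a cell viability assay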
# Description: SANGER: Inhibition of human LB1047-RCC cell growth in a cell viability assay.
# Lu-65 = assay type: functional, cell-based; settings: Homo sapiens;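 also: growth inhibition of Lu-65 cancer cells, read out by a cell viability assay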
# Description: SANGER: Inhibition of human LU-65 cell growth in a cell viability assay.
# LoVo = assay type: functional, cell-based; settings: Homo sapiens;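 also: growth inhibition of human LoVo cells, read out with a cell viability assay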
# Description: SANGER: Inhibition of human LoVo cell growth in a cell viability assay.
# MDA-MB-415 = assay type: functional, cell-based; settings: Homo sapiens
# MG-63 = assay type: functional, cell-based, Homo sapiens; settings: Homo sapiens, MG-63;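 also: growth inhibition of human MG-63 cells, read out with a cell viability assay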
# Description: SANGER: Inhibition of human MG-63 cell growth in a cell viability assay.
# NCI-H1395 = assay type: functional, cell-based, Homo sapiens; settings: Homo sapiens, NCI-H1395;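 also: cell viability assay read-out quantifying reduced proliferation of human NCI-H1395 cells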
# Description: SANGER: Inhibition of human NCI-H1395 cell growth in a cell viability assay.
# NCI-H2087 = assay type: functional, cell-based, Homo sapiens; settings: Homo sapiens, NCI-H2087;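 also: growth inhibition determined with a cell viability readout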
# Description: SANGER: Inhibition of human NCI-H2087 cell growth in a cell viability assay.
# NCI-H2347 = assay type: functional, cell-based, Homo sapiens; settings: Homo sapiens, NCI-H2347;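 also: growth inhibition of the cell line, read out with a cell viability assay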
# Description: SANGER: Inhibition of human NCI-H2347 cell growth in a cell viability assay.
# NCI-H292 = assay type: functional, cell-based, Homo sapiens; settings: Homo sapiens, NCI-H292;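 also: growth inhibition of NCI-H292 cells, read out with a cell viability assay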
# Description: SANGER: Inhibition of human NCI-H292 cell growth in a cell viability assay.
# NCI-H358 = assay type: functional, cell-based, Homo sapiens; settings: Homo sapiens, NCI-H358;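 also: growth inhibition of NCI-H358 human cells, read out with a cell viability assay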
# Description: SANGER: Inhibition of human NCI-H358 cell growth in a cell viability assay.
# NCI-H596 = assay type: functional, cell-based, Homo sapiens; settings: Homo sapiens, NCI-H596;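 also: growth inhibition of NCI-H596 cells, read out with a cell viability assay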
# Description: SANGER: Inhibition of human NCI-H596 cell growth in a cell viability assay.
# NCI-H82 = assay type: functional, cell-based; settings: Homo sapiens;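 also: growth inhibition of NCI-H82 cells, measured with a cell viability readout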
# Description: SANGER: Inhibition of human NCI-H82 cell growth in a cell viability assay.
# NKM-1 = assay type: functional, cell-based; settings: Homo sapiens;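 also: growth inhibition of NKM-1 cells, read out with a cell viability assay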
# Description: SANGER: Inhibition of human NKM-1 cell growth in a cell viability assay.
# OS-RC-2 = assay type: functional, cell-based, Homo sapiens; settings: Homo sapiens, OS-RC-2;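 also: growth inhibition of human OS-RC-2 cells, measured by a cell viability assay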
# Description: SANGER: Inhibition of human OS-RC-2 cell growth in a cell viability assay.
# RH-1 = assay type: functional, cell-based, Homo sapiens; settings: Homo sapiens, RH-1;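 also: growth inhibition of human RH-1 cells, read out with a cell viability assay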
# Description: SANGER: Inhibition of human RH-1 cell growth in a cell viability assay.
# RKO = assay type: functional, cell-based, Homo sapiens; settings: Homo sapiens, RKO;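 also: growth inhibition of human RKO cells, read out with a cell viability assay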
# Description: SANGER: Inhibition of human RKO cell growth in a cell viability assay.
# S-117 = assay type: functional, cell-based, Homo sapiens; settings: Homo sapiens, S-117
# Description: SANGER: Inhibition of human S-117 cell growth in a cell viability assay.
# SH-4 = assay type: functional, cell-based, Homo sapiens; settings: Homo sapiens, SH-4;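 also: growth inhibition of SH-4 cells, read out with a cell viability assay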
# Description: SANGER: Inhibition of human SH-4 cell growth in a cell viability assay.
# SK-N-AS = assay type: functional, cell-based, Homo sapiens; settings: Homo sapiens, SK-N-AS;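 also: growth inhibition of human SK-N-AS cells, measured with a cell viability assay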
# Description: SANGER: Inhibition of human SK-N-AS cell growth in a cell viability assay.
# SW1573 = assay type: functional, cell-based, Homo sapiens; settings: Homo sapiens, SW1573;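 also: growth inhibition of SW1573 cells, read out with a cell viability assay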
# Description: SANGER: Inhibition of human SW1573 cell growth in a cell viability assay.
# SW872 = assay type: functional, cell-based, Homo sapiens; settings: Homo sapiens, SW872;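 also: growth inhibition of SW872 cells, read out by a viability assay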
# Description: SANGER: Inhibition of human SW872 cell growth in a cell viability assay.
# SiHa = assay type: functional, cell-based, Homo sapiens; settings: Homo sapiens, SiHa;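 also: Viability-based readout of growth inhibition in SiHa cells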
# Description: SANGER: Inhibition of human SiHa cell growth in a cell viability assay.
# CWR22R = assay type: functional, cell-based, Homo sapiens; settings: Homo sapiens, 22Rv1;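 also: growth inhibition of 22Rv1 cells, read out with a cell viability assay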
# Description: SANGER: Inhibition of human 22RV1 cell growth in a cell viability assay.
# A-431 = assay type: functional, cell-based, Homo sapiens; settings: Homo sapiens, A-431;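 also: growth inhibition of A-431 cells, determined with a cell viability read-out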
# Description: SANGER: Inhibition of human A431 cell growth in a cell viability assay.
# A704 = assay type: functional, cell-based, Homo sapiens; settings: Homo sapiens, A704;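 also: growth inhibition of human A704 cells, read out with a cell viability assay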
# Description: SANGER: Inhibition of human A704 cell growth in a cell viability assay.
# ATN-1 = assay type: functional, cell-based; settings: Homo sapiens;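 also: growth inhibition of human ATN-1 cells, read out with a cell viability assay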
# Description: SANGER: Inhibition of human ATN-1 cell growth in a cell viability assay.
# BE-13 = assay type: functional, cell-based; settings: Homo sapiens;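 also: growth inhibition of human BE-13 cells, measured with a cell viability assay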
# Description: SANGER: Inhibition of human BE-13 cell growth in a cell viability assay.
# C-33-A = assay type: functional, cell-based, Homo sapiens; settings: Homo sapiens, C-33-A;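 also: cell viability assay measuring growth inhibition of C-33-A cells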
# Description: SANGER: Inhibition of human C-33-A cell growth in a cell viability assay.
# CAL-33 = assay type: functional, cell-based, Homo sapiens; settings: Homo sapiens, CAL-33;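 also: growth inhibition of CAL-33 cells, read out with a cell viability assay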
# Description: SANGER: Inhibition of human CAL-33 cell growth in a cell viability assay.
# CAL-62 = assay type: functional, cell-based, Homo sapiens; settings: Homo sapiens, CAL-62;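 also: growth inhibition of CAL-62 cells, read out with a cell viability assay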
# Description: SANGER: Inhibition of human CAL-62 cell growth in a cell viability assay.
# TGBC24TKB = assay type: functional, cell-based, Homo sapiens; settings: Homo sapiens, TGBC24TKB;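 also: growth inhibition of human TGBC24TKB cells, read out with a cell viability assay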
# Description: SANGER: Inhibition of human TGBC24TKB cell growth in a cell viability assay.
# UACC-257 = assay type: functional, cell-based, Homo sapiens; settings: Homo sapiens, UACC-257
# Description: SANGER: Inhibition of human UACC-257 cell growth in a cell viability assay.
# WM-115 = assay type: functional, cell-based, Homo sapiens; settings: Homo sapiens, WM-115
# Description: SANGER: Inhibition of human WM-115 cell growth in a cell viability assay.
# no-11 = assay type: functional, cell-based, Homo sapiens; settings: Homo sapiens;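 also: growth inhibition of human NO-11 cells, read out with a cell viability assay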
# Description: SANGER: Inhibition of human no-11 cell growth in a cell viability assay.
# CCRF-CEM = assay type: functional, cell-based; settings: Homo sapiens;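 also: inhibition of CCRF-CEM cell growth, measured by a cell viability assay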
# Description: SANGER: Inhibition of human CCRF-CEM cell growth in a cell viability assay.
# COLO-679 = assay type: functional, cell-based, Homo sapiens; settings: Homo sapiens, COLO-679
# Description: SANGER: Inhibition of human COLO-679 cell growth in a cell viability assay.
compound,measurement,setting,value
C=CCNC1=C2C[C@@H](C)C[C@H](OC)[C@H](O)[C@@H](C)/C=C(\C)[C@H](OC(N)=O)[C@@H](OC)/C=C\C=C(/C)C(=O)NC(=CC1=O)C2=O [TANESPIMYCIN],pIC50,COR-L105,< 6.00
same,pIC50,CP50-MEL-B,7.46
same,pIC50,D-392MG,6.05
same,pIC50,EKVX,< 6.00
same,pIC50,ES7,< 6.00
same,pIC50,ESS-1,6.61
same,pIC50,GCIY,6.04
same,pIC50,GP5d,6.85
same,pIC50,HCC1569,< 6.00
same,pIC50,HH,< 6.00
same,pIC50,IST-MES1,< 6.00
same,pIC50,KG-1,< 6.00
same,pIC50,KLE,< 6.00
same,pIC50,KYSE-270,6.64
same,pIC50,LAN-6,< 6.00
same,pIC50,LB1047-RCC,7.28
same,pIC50,Lu-65,6.03
same,pIC50,LoVo,< 6.00
same,pIC50,MDA-MB-415,6.15
same,pIC50,MG-63,< 6.00
same,pIC50,NCI-H1395,6.73
same,pIC50,NCI-H2087,6.76
same,pIC50,NCI-H2347,6.83
same,pIC50,NCI-H292,6.88
same,pIC50,NCI-H358,6.16
same,pIC50,NCI-H596,< 6.00
same,pIC50,NCI-H82,< 6.00
same,pIC50,NKM-1,6.97
same,pIC50,OS-RC-2,6.61
same,pIC50,RH-1,< 6.00
same,pIC50,RKO,6.93
same,pIC50,S-117,6.69
same,pIC50,SH-4,6.94
same,pIC50,SK-N-AS,< 6.00
same,pIC50,SW1573,6.83
same,pIC50,SW872,6.22
same,pIC50,SiHa,6.98
same,pIC50,CWR22R,< 6.00
same,pIC50,A-431,7.09
same,pIC50,A704,< 6.00
same,pIC50,ATN-1,< 6.00
same,pIC50,BE-13,< 6.00
same,pIC50,C-33-A,< 6.00
same,pIC50,CAL-33,< 6.00
same,pIC50,CAL-62,6.79
same,pIC50,TGBC24TKB,< 6.00
same,pIC50,UACC-257,6.08
same,pIC50,WM-115,7.42
same,pIC50,no-11,6.43
same,pIC50,CCRF-CEM,< 6.00
same,pIC50,COLO-679,6.95
O=C1N=C(NCc2cccs2)S/C1=C\c1ccc2ncccc2c1,pIC50,COR-L105,< 5.30
same,pIC50,CP50-MEL-B,< 5.30
same,pIC50,D-392MG,< 5.30
same,pIC50,EKVX,< 5.30
same,pIC50,ES7,< 5.30
same,pIC50,ESS-1,< 5.30
same,pIC50,GCIY,< 5.30
same,pIC50,GP5d,< 5.30
same,pIC50,HCC1569,< 5.30
same,pIC50,HH,< 5.30
same,pIC50,IST-MES1,< 5.30
same,pIC50,KG-1,< 5.30
same,pIC50,KLE,< 5.30
same,pIC50,KYSE-270,< 5.30
same,pIC50,LAN-6,< 5.30
same,pIC50,LB1047-RCC,5.49
same,pIC50,Lu-65,< 5.30
same,pIC50,LoVo,< 5.30
same,pIC50,MDA-MB-415,< 5.30
same,pIC50,MG-63,< 5.30
same,pIC50,NCI-H1395,< 5.30
same,pIC50,NCI-H2087,< 5.30
same,pIC50,NCI-H2347,< 5.30
same,pIC50,NCI-H292,< 5.30
same,pIC50,NCI-H358,< 5.30
same,pIC50,NCI-H596,< 5.30
same,pIC50,NCI-H82,< 5.30
same,pIC50,NKM-1,< 5.30
same,pIC50,OS-RC-2,< 5.30
same,pIC50,RH-1,< 5.30
same,pIC50,RKO,< 5.30
same,pIC50,S-117,< 5.30
same,pIC50,SH-4,< 5.30
same,pIC50,SK-N-AS,< 5.30
same,pIC50,SW1573,< 5.30
same,pIC50,SW872,< 5.30
same,pIC50,SiHa,< 5.30
same,pIC50,CWR22R,< 5.30
same,pIC50,A-431,< 5.30
same,pIC50,A704,< 5.30
same,pIC50,ATN-1,< 5.30
same,pIC50,BE-13,< 5.30
same,pIC50,C-33-A,< 5.30
same,pIC50,CAL-33,< 5.30
same,pIC50,CAL-62,< 5.30
same,pIC50,TGBC24TKB,< 5.30
same,pIC50,UACC-257,< 5.30
same,pIC50,WM-115,< 5.30
same,pIC50,no-11,< 5.30
same,pIC50,CCRF-CEM,< 5.30
same,pIC50,COLO-679,< 5.30
COc1ccc(-c2ccc3c(N4CCOC[C@@H]4C)nc(N4CCOC[C@@H]4C)nc3n2)cc1CO [AZD-8055],pIC50,COR-L105,< 5.70
same,pIC50,CP50-MEL-B,6.05
same,pIC50,D-392MG,< 5.70
same,pIC50,EKVX,5.94
same,pIC50,ES7,6.56
same,pIC50,ESS-1,< 5.70
same,pIC50,GCIY,6.34
same,pIC50,GP5d,< 5.70
same,pIC50,HCC1569,6.07
same,pIC50,HH,7.10
same,pIC50,IST-MES1,< 5.70
same,pIC50,KG-1,6.25
same,pIC50,KLE,< 5.70
same,pIC50,KYSE-270,5.80
same,pIC50,LAN-6,< 5.70
same,pIC50,LB1047-RCC,6.47
same,pIC50,Lu-65,5.90
same,pIC50,LoVo,6.69
same,pIC50,MDA-MB-415,5.91
same,pIC50,MG-63,6.56
same,pIC50,NCI-H1395,< 5.70
same,pIC50,NCI-H2087,< 5.70
same,pIC50,NCI-H2347,6.08
same,pIC50,NCI-H292,6.54
same,pIC50,NCI-H358,< 5.70
same,pIC50,NCI-H596,5.90
same,pIC50,NCI-H82,< 5.70
same,pIC50,NKM-1,6.70
same,pIC50,OS-RC-2,5.97
same,pIC50,RH-1,5.80
same,pIC50,RKO,6.06
same,pIC50,S-117,< 5.70
same,pIC50,SH-4,5.96
same,pIC50,SK-N-AS,< 5.70
same,pIC50,SW1573,5.80
same,pIC50,SW872,5.86
same,pIC50,SiHa,< 5.70
same,pIC50,CWR22R,6.15
same,pIC50,A-431,6.08
same,pIC50,A704,6.09
same,pIC50,ATN-1,6.15
same,pIC50,BE-13,5.95
same,pIC50,C-33-A,6.04
same,pIC50,CAL-33,6.06
same,pIC50,CAL-62,6.10
same,pIC50,TGBC24TKB,5.73
same,pIC50,UACC-257,< 5.70
same,pIC50,WM-115,6.16
same,pIC50,no-11,< 5.70
same,pIC50,CCRF-CEM,< 5.70
same,pIC50,COLO-679,< 5.70
